In patent publication US9708318B2, “Bicyclic heterocycles as FGFR4 inhibitors” (Incyte Corporation, priority 2015, dated 2017):
Read-outs that look alike come from different tables or passages of the source.

Experiments:
FGFR2 = FGFR2 (Homo sapiens (Human), UniProt P21802); assay: FGFR Enzymatic Assay (FRET peptide phosphorylation), FGFR2; assay type: biochemical
Method: (§1) The inhibitor potency of the exemplified compounds was measured in an enzyme assay that measures peptide phosphorylation using FRET measurements to detect product formation. Inhibitors were serially diluted in DMSO and a volume of 0.5 μL was transferred to the wells of a 384-well plate.
(§2) The enzymes were purchased from Millipore or Invitrogen.
(§3) GraphPad prism3 was used to analyze the data.

FGFR3 enzyme = FGFR3 enzyme (Homo sapiens (Human), UniProt P22607); assay: FGFR Enzymatic Assay (FRET peptide phosphorylation), FGFR3; assay type: biochemical; conditions: for FGFR1/FGFR3 IC50 ratio / FGFR4/FGFR3 IC50 ratio: FGFR3 selectivity; for IC50: read-out: FGFR3 IC50
FGFR3 enzyme, sequence (P22607 23-806): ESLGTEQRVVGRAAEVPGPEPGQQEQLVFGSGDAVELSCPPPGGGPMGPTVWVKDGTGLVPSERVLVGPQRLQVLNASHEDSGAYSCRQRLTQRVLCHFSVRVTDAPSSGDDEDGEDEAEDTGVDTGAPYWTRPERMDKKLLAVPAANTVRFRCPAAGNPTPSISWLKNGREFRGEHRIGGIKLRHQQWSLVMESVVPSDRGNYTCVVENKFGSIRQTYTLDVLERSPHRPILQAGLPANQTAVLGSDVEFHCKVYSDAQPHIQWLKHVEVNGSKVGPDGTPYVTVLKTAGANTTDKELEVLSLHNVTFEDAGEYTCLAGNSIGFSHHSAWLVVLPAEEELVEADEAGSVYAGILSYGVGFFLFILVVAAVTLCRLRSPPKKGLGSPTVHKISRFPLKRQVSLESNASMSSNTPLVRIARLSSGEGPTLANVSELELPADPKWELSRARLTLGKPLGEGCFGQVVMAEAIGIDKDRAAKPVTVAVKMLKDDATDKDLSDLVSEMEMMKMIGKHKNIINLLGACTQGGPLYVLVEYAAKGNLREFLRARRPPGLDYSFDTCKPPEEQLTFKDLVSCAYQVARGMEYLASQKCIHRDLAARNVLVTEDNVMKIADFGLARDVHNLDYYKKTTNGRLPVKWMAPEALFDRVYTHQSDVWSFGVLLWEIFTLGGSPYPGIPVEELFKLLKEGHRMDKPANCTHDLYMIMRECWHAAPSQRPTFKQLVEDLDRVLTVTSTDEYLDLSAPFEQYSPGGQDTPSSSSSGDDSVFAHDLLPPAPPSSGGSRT
Method: as §1, §3

FGFR4 = FGFR4 (Homo sapiens (Human), UniProt P22455); assay: FGFR Enzymatic Assay (FRET peptide phosphorylation), FGFR4; assay type: biochemical
FGFR4, sequence (P22455 22-802): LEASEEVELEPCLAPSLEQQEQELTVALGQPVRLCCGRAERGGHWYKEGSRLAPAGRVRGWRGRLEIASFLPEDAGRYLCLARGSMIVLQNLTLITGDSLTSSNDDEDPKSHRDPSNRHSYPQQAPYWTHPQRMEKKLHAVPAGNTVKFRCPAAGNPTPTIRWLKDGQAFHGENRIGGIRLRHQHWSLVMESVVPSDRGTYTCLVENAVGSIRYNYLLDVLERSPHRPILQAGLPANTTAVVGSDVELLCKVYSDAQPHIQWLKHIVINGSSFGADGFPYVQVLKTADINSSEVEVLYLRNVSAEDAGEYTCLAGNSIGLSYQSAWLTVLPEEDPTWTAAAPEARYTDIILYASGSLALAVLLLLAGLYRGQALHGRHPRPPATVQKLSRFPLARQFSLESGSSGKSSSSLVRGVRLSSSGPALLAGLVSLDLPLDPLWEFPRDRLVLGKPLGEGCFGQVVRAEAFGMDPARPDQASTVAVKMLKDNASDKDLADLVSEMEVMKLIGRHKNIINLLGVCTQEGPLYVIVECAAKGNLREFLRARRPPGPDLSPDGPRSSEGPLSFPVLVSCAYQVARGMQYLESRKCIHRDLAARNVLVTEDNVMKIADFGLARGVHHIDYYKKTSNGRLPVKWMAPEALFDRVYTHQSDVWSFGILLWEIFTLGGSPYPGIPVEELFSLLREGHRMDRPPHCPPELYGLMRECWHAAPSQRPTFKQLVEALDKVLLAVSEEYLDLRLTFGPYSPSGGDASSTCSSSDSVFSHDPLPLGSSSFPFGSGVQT
Method: as §1, §2, §3

FGFR1 = FGFR1 (Homo sapiens (Human), UniProt P11362); assay: FGFR Enzymatic Assay (FRET peptide phosphorylation), FGFR1
FGFR1, sequence (P11362 22-822): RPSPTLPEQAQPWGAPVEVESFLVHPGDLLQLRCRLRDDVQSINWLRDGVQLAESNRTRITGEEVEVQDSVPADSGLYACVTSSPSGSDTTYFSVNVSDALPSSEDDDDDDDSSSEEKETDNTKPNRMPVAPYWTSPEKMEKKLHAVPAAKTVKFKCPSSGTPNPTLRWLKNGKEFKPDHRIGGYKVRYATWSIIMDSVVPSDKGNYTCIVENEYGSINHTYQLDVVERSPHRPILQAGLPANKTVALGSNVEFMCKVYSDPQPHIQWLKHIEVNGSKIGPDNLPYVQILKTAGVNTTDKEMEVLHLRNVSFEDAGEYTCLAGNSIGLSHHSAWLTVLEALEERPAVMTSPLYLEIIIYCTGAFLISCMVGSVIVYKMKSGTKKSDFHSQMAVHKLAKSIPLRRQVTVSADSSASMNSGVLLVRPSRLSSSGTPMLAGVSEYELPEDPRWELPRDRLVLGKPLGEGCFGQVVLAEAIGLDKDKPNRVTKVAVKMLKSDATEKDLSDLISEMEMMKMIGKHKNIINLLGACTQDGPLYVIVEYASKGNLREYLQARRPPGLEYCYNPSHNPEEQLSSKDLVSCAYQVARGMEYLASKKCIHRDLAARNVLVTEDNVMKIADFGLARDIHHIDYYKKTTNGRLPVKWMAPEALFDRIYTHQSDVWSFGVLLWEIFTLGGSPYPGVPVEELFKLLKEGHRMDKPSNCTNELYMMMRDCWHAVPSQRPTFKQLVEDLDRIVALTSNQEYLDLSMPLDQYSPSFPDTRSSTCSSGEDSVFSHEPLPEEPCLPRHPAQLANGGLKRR

[1] = read-out: FGFR1 IC50, pre-incubated for 4 hours
[2] = FGFR1 IC50 (nM), pre-incubated for 4 hours
[3] = pre-incubated for 5 to 10 minutes
[4] = FGFR1 IC50 (nM), pre-incubated for 5 to 10 minutes

FGFR2, sequence (P21802 22-821): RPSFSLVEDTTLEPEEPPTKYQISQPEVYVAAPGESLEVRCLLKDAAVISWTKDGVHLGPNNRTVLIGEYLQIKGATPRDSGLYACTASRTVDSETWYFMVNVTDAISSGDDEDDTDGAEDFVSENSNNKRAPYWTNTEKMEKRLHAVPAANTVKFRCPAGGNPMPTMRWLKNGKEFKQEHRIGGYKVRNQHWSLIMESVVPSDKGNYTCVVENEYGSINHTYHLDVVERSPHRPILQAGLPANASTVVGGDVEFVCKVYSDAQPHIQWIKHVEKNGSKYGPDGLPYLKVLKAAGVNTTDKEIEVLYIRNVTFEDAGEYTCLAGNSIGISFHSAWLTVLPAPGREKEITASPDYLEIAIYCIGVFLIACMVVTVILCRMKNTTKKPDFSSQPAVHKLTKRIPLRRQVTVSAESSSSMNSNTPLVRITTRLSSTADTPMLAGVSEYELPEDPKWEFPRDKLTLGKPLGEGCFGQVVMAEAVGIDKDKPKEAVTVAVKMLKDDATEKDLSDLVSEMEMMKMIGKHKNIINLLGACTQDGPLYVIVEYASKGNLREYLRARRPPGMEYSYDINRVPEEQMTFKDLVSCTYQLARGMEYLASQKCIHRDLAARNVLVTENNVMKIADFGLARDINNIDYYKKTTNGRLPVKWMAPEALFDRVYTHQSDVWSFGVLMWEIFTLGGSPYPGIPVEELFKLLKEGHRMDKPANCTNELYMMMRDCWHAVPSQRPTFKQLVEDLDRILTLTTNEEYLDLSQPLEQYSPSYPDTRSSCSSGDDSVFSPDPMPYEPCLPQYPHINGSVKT

Row | SMILES | IC50 (FGFR2; pre-incubated for 4 hours) | FGFR1/FGFR3 IC50 ratio (FGFR3 enzyme; pre-incubated for 4 hours) | IC50 (FGFR3 enzyme; pre-incubated for 4 hours) | IC50 (FGFR4; pre-incubated for 4 hours) | IC50 (FGFR1; [1]) | FGFR4/FGFR3 IC50 ratio (FGFR3 enzyme; pre-incubated for 4 hours) | IC50 (FGFR1; [2]) | IC50 (FGFR2; [3]) | IC50 (FGFR3 enzyme; [3]) | IC50 (FGFR4; [3]) | IC50 (FGFR1; [4])
1 | COc1cc(OC)c(F)c(N2Cc3cnc(-c4ccccc4)cc3C3(CC3)C2=O)c1F [Example 17, 2′-(2,6-difluoro-3,5-dimethoxyphenyl)-6′-phenyl-1′H-spiro[cyclopropane-1,4′-[2,7]naphthyridin]-3′(2′H)-one] | 30 to 200 nM | >10 | 10 to 30 nM | 10 to 30 nM | > 200 nM |  |  |  |  |  | 
2 | COc1cc(OC)c(F)c(N2Cc3cnc(-c4cn(C)nc4C)cc3N(c3cn[nH]c3)C2=O)c1F [Example 129, 3-(2,6-difluoro-3,5-dimethoxyphenyl)-7-(1,3-dimethyl-1H-pyrazol-4-yl)-1-(1H-pyrazol-4-yl)-3,4-dihydropyrido[4,3-d]pyrimidin-2(1H)-one] | < 10 nM | >5 | < 10 nM | 30 to 200 nM |  | >10 | 10 to 30 nM |  |  |  | 
3 | COc1cc(OC)c(F)c(N2Cc3cnc(-c4cn(C)nc4C)cc3N(Cc3cnn(CC4CCCO4)c3)C2=O)c1F (stereo not shown) [Example 127, 3-(2,6-difluoro-3,5-dimethoxyphenyl)-7-(1,3-dimethyl-1H-pyrazol-4-yl)-1-((1-((tetrahydrofuran-2-yl)methyl)-1H-pyrazol-4-yl)methyl)-3,4-dihydropyrido[4,3-d]pyrimidin-2(1H)-one] |  |  |  |  |  |  |  | 10 to 30 nM | 10 to 30 nM | 30 to 200 nM | 30 to 200 nM
4 | COc1cc(OC)c(F)c(N2Cc3cnc(-c4ccc(C5(C#N)CCC5)nc4)cc3N(c3cccnc3)C2=O)c1F [Example 138, 1-(5-(3-(2,6-difluoro-3,5-dimethoxyphenyl)-2-oxo-1-(pyridin-3-yl)-1,2,3,4-tetrahydropyrido[4,3-d]pyrimidin-7-yl)pyridin-2-yl)cyclobutanecarbonitrile] |  |  |  |  |  |  |  | 10 to 30 nM | 10 to 30 nM | 30 to 200 nM | 30 to 200 nM
5 | COc1cc(OC)c(F)c(N2Cc3cnc(-c4cn(C)nc4C)cc3N(Cc3ccc(F)cc3)C2=O)c1F [Example 34, 3-(2,6-difluoro-3,5-dimethoxyphenyl)-7-(1,3-dimethyl-1H-pyrazol-4-yl)-1-(4-fluorobenzyl)-3,4-dihydropyrido[4,3-d]pyrimidin-2(1H)-one] | 10 to 30 nM | >5 | < 10 nM | 30 to 200 nM |  | >10 | 30 to 200 nM |  |  |  | 
8 | COc1cc(OC)c(F)c(N2Cc3cnc(-c4cnn(C5(C#N)CCC5)c4C)cc3C3(CC3)C2=O)c1F [Example 149, 1-(4-(2′-(2,6-difluoro-3,5-dimethoxyphenyl)-3′-oxo-2′,3′-dihydro-1′H-spiro[cyclopropane-1,4′-[2,7]naphthyridine]-6′-yl)-5-methyl-1H-pyrazol-1-yl)cyclobutanecarbonitrile] | < 10 nM |  | < 10 nM |  |  |  | […] |  |  |  | 
